Legend:
glutathione (GSH) = assay: GSH level in liver, kidney, colon, brain; type: in vivo, mice; settings: 72 h
Procedure: (§1) Tissue samples were homogenized with ice-cold 150 mM KCl for the determination of LPO and glutathione (GSH) levels. The LPO levels were assayed by monitoring TBARS formation as described above.

[1] = tested on: carrageenan-induced hind paw edema; assay: Carrageenan-induced hind paw edema model; type: in vivo, mice
Procedure: Locally bred balb/c mice of both sexes (30-35 g) were purchased from the animal breeding laboratories of Inonu University ([…], Turkey). The animals were fed a standard pellet diet and water ad libitum in a temperature-controlled room. On the day before the treatments, food was withdrawn, but the animals were allowed free access of water. The allocation of animals to different groups was randomized, and the experiments were carried out under blind conditions. Mice used in the present study were cared for in accordance with the directory of the Inonu University Animal Care Unit, which applies the guidelines of the National Institutes of Health on laboratory animal welfare. Procedures involving animals and their care were conducted in conformity with international laws and policies and animal studies accepted by Inonu University Ethical Council (2011/A17). Test samples, suspended in a mixture of distilled water and 0.5% sodium carboxymethyl cellulose (CMC), were given orally to the animals. The control group animals received the same experimental handling as those of the test groups, except that the drug treatment was replaced with appropriate volumes of the dosing vehicle. […] For the preliminary activity screening, each test group was composed of four mice. […] Because of the daily changing circumstance, we used another control group for each experiment. For the determination of the effects on carrageenan-induced paw oedema, the modified method of Kasahara et al. was employed. One hour after the oral administration of either test sample or dosing vehicle, each mouse was injected with a freshly prepared (0.5 mg/25 μL) suspension of carrageenan (Sigma, St. Louis, MO, USA) in physiological saline (154 mM NaCl). The subplantar tissue of the right hind paw was the injection site for all mice. The contralateral paw (left hind paw) was injected with 25 μL saline solution as the internal control. […] The difference in footpad thickness between the right and left foot indicated the degree of inflammation for each mouse. The change in paw volume, either increase or decrease, was calculated and compared with the control group (dosing vehicle) and analyzed using statistical methods.

[2] = tested on: 60 human tumor cell lines; assay: NCI60 in vitro cancer screen; type: cell-based; settings: 10 µM; variety of cell lines
Excerpt: The selected compound N-(ethylcarbamothioyl)-4-[5-(4-methylphenyl)-3-(trifluoromethyl)-1H-pyrazol-1-yl]benzenesulfonamide (1a) was screened by the National Institutes of Health (NIH) for anticancer activity against 60 human tumor cell lines. Most of the compounds in the series of structures submitted include one or more functional groups that have been found troublesome to the development of successful drug candidates. In addition, the selection criteria guidance available at the following DTP web site: http://www.dtp.nci.nih.gov/docs/misc/common_files/guidelines.html. For NCI criteria, compounds, which reduce the growth of any one of the cell lines to approximately 32% or less, are passed on for evaluation in the full panel of cell lines over a 5-log dose range.
The methodology of the NCI60 in vitro cancer screen can be found on-line at http://dtp.nci.nih.gov/branches/btb/ivclsp.html and can be reviewed on their web site.

LPO = LPO (TBARS) level in liver, kidney, colon, brain; type: in vivo, mice; settings: 72 h
Procedure: as §1

[3] = tested on: lipid peroxidation in stomach; assay: Lipid peroxidation in stomach (TBARS); type: in vivo, mice; settings: 100 mg/kg, 8 h after analgesic test
[4] = molecular target: T1, HCV NS5B RNA dependent RNA polymerase (Hepatitis C virus genotype 1b, UniProt P26663); assay: NS5B inhibition assay (primer dependent elongation, poly rA-U12); type: biochemical; settings: read-out: Anti-NS5B Activity (% Inh., 100 µM)
T1 construct: HCV NS5B RNA dependent RNA polymerase activity
T1 sequence (P26663 2420-3010): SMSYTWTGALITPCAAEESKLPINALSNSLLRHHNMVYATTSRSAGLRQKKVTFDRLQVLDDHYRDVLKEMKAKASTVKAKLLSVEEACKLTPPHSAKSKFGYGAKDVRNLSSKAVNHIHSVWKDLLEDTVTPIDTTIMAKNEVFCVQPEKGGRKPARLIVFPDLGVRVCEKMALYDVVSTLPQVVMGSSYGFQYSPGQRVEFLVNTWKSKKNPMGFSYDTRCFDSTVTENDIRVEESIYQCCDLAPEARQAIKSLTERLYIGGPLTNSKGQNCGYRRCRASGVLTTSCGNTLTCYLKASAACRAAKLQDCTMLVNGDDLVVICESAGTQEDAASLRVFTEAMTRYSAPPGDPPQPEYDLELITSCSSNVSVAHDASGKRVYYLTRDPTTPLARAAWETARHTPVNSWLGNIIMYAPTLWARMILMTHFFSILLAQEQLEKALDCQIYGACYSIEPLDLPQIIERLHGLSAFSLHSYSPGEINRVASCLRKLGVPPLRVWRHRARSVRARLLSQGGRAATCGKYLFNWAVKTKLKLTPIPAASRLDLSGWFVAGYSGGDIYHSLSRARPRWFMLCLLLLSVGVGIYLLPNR
Procedure: The compounds 1a–e and 2a–e were reconstituted in DMSO as 50 mM stocks, and serially diluted in DMSO to obtain working stocks. Wedelolactone, a known inhibitor of HCV NS5B activity, was employed as a reference compound. Preliminary screening was carried out at 100 μM to identify a wider range of compounds.
All synthesized compounds were evaluated for their effect on HCV NS5B RNA dependent RNA polymerase activity in primer dependent elongation assays as previously described. Activity of NS5B in the absence of the inhibitor but containing an equivalent amount of DMSO (control reaction) was set at 100% and that in the presence of the inhibitor was quantified relative to this control.

stomach = assay: Gastric-ulcerogenic effect (ulcer score); type: in vivo, mice; settings: 200 mg/kg p.o.; animals with lesions/animals
[5] = tested on: acetic acid-induced abdominal constriction; assay: Acetic acid-induced writhing (Koster) test; type: in vivo, mice; settings: 100 mg/kg oral
Procedure: Test samples, suspended in a mixture of distilled water and 0.5% sodium carboxymethyl cellulose (CMC), were given orally to the animals. The control group animals received the same experimental handling as those of the test groups, except that the drug treatment was replaced with appropriate volumes of the dosing vehicle. […] One hour after oral administration of test sample, each mouse was injected intraperitoneally with 3% (w/v) acetic acid solution (0.1 mL/10 g, bw). Starting 5 min after the acetic acid injection, the number of muscular contractions on mice were counted for a period of 10 min. A significant reduction in the number of writhings by any treatment as compared to the number of writhings in control animals was considered a positive analgesic response. The analgesic activity was expressed as a percentage change from writhing controls. ASA was used as a reference compound and administered at 200 mg/kg.

- GSH (glutathione (GSH); brain, 100 mg/kg oral): 18.7 ± 5.52 µmol/g tissue
- GSH (glutathione (GSH); brain, 200 mg/kg oral): 18.74 ± 3.03 µmol/g tissue
- GSH (glutathione (GSH); colon, 100 mg/kg oral): 27.22 ± 2.41 µmol/g tissue
- GSH (glutathione (GSH); colon, 200 mg/kg oral): 25.16 ± 2.76 µmol/g tissue
- GSH (glutathione (GSH); kidney, 100 mg/kg oral): 17.02 ± 5.23 µmol/g tissue
- GSH (glutathione (GSH); kidney, 200 mg/kg oral): 18.26 ± 3.28 µmol/g tissue
- GSH (glutathione (GSH); liver, 100 mg/kg oral): 22.68 ± 1.20 µmol/g tissue
- GSH (glutathione (GSH); liver, 200 mg/kg oral): 24.58 ± 4.47 µmol/g tissue
- LPO (LPO; brain, 100 mg/kg oral): 8.36 ± 2.61 nmol/g tissue
- LPO (LPO; brain, 200 mg/kg oral): 9.40 ± 2.08 nmol/g tissue
- LPO (LPO; colon, 100 mg/kg oral): 8.66 ± 2.23 nmol/g tissue
- LPO (LPO; colon, 200 mg/kg oral): 11.04 ± 2.11 nmol/g tissue
- LPO (LPO; kidney, 100 mg/kg oral): 10.96 ± 2.01 nmol/g tissue
- LPO (LPO; kidney, 200 mg/kg oral): 12.56 ± 2.96 nmol/g tissue
- LPO (LPO; liver, 100 mg/kg oral): 9.78 ± 1.30 nmol/gtissue
- LPO (LPO; liver, 200 mg/kg oral): 13.72 ± 3.05 nmol/gtissue
- Lipid peroxidation [3]: 387.7 ± 12.8 nmol TBARS/g wet weight
- melting point: 215 to 218 °C
- inhibition at 100 µM [4]: 49.4%
Structure (SMILES): CCNC(=S)NS(=O)(=O)c1ccc(-n2nc(C(F)(F)F)cc2-c2ccc(C)cc2)cc1 [Compound 1a, N-(Ethylcarbamothioyl)-4-[5-(4-methylphenyl)-3-(trifluoromethyl)-1H-pyrazol-1-yl] benzenesulfonamide]
- Swelling in thickness ± SEM ([1]; 50 mg/kg per os, 90 min): 70.0 ± 6.5 × 10^−2 mm
- percent inhibitory activity ([1]; 50 mg/kg per os, 90 min): 2.7%
- Swelling in thickness ± SEM ([1]; 50 mg/kg per os, 180 min): 72.0 ± 5.1 × 10^−2 mm
- percent inhibitory activity ([1]; 50 mg/kg per os, 180 min): 21.7%
- Swelling in thickness ± SEM ([1]; 50 mg/kg per os, 270 min): 90.0 ± 9.3 × 10^−2 mm
- percent inhibitory activity ([1]; 50 mg/kg per os, 270 min): 25.6%
- Swelling in thickness ± SEM ([1]; 50 mg/kg per os, 360 min): 100.0 ± 6.5 × 10^−2 mm
- percent inhibitory activity ([1]; 50 mg/kg per os, 360 min): 22.4%
- Swelling in thickness ± SEM ([1]; 100 mg/kg per os, 90 min): 58.1 ± 6.6 × 10^−2 mm
- percent inhibitory activity ([1]; 100 mg/kg per os, 90 min): 19.4%
- Swelling in thickness ± SEM ([1]; 100 mg/kg per os, 180 min): 72.9 ± 11.9 × 10^−2 mm
- percent inhibitory activity ([1]; 100 mg/kg per os, 180 min): 19.7%
- Swelling in thickness ± SEM ([1]; 100 mg/kg per os, 270 min): 72.7 ± 16.7 × 10^−2 mm
- percent inhibitory activity ([1]; 100 mg/kg per os, 270 min): 39.5%
- Swelling in thickness ± SEM ([1]; 100 mg/kg per os, 360 min): 77.9 ± 11.7 × 10^−2 mm
- percent inhibitory activity ([1]; 100 mg/kg per os, 360 min): 39.7%
- Swelling in thickness ± SEM ([1]; 200 mg/kg per os, 90 min): 54.6 ± 7.9 × 10^−2 mm
- percent inhibitory activity ([1]; 200 mg/kg per os, 90 min): 25.0%
- Swelling in thickness ± SEM ([1]; 200 mg/kg per os, 180 min): 74.2 ± 8.2 × 10^−2 mm
- percent inhibitory activity ([1]; 200 mg/kg per os, 180 min): 19.3%
- Swelling in thickness ± SEM ([1]; 200 mg/kg per os, 270 min): 117.5 ± 9.8 × 10^−2 mm
- percent inhibitory activity ([1]; 200 mg/kg per os, 270 min): 2.9%
- Swelling in thickness ± SEM ([1]; 200 mg/kg per os, 360 min): 97.4 ± 5.6 × 10^−2 mm
- percent inhibitory activity ([1]; 200 mg/kg per os, 360 min): 24.5%
- anti-inflammatory activity (in words) ([1]; all doses, all measurement intervals): moderate-to-good
- cell growth inhibition [2]: negligible
- Ulcer score (stomach): 0/5
- Writhing test (% inh.) [5]: 67.8%
- Writhing test (Mean ± SEM) ([5]; writhings counted 10 min from 5 min after acetic acid): 5.6 ± 0.9

— PMC6269910 (Molecules, 2013)
